According to patent US10202361B2, “Pyridazinones as herbicides” (E I DU PONT DE NEMOURS AND COMPANY, priority 2014, dated 2019):
Read-outs that look alike come from different tables or passages of the source.

Columns and labels:
Test in all cases: Test C pre-/postemergence greenhouse herbicide test
Assay type in all cases: in vivo
[1] = system: lambsquarters (Chenopodium album)
Procedure, shortened: (§1)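 Plant response is scored on a 0–100 scale, where 100 means complete control, by visual comparison with controls 13 to 15 d after greenhouse treatment. Applications are made pre- and postemergence using a surfactant-containing, non-phytotoxic solvent formulation.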

[2] = system: ragweed (common ragweed, Ambrosia elatior); conditions: Ambrosia artemisiifolia, Ragweed, read-out: Plant response rating; for pest or weed control at 31 g/ha: 31 g ai/ha; for pest or weed control at 62 g/ha: 62 g ai/ha; for pest or weed control at 125 g/ha: 125 g ai/ha; for pest or weed control at 250 g/ha: 250 g ai/ha
Procedure, shortened: as §1

[3] = system: crabgrass, Large (large crabgrass, Digitaria sanguinalis); conditions: Digitaria sanguinalis, Crabgrass, Large, read-out: Plant response rating; for pest or weed control at 31 g/ha: 31 g ai/ha; for pest or weed control at 62 g/ha: 62 g ai/ha; for pest or weed control at 125 g/ha: 125 g ai/ha; for pest or weed control at 250 g/ha: 250 g ai/ha
Procedure, shortened: as §1

[4] = system: blackgrass (Alopecurus myosuroides); conditions: Alopecurus myosuroides, Blackgrass, read-out: Plant response rating; for pest or weed control at 62 g/ha: 62 g ai/ha; for pest or weed control at 125 g/ha: 125 g ai/ha; for pest or weed control at 250 g/ha: 250 g ai/ha
Procedure, shortened: as §1

[5] = system: soybean (Glycine max); conditions: Glycine max, Soybean, read-out: Plant response rating; for plant injury at 62 g/ha: 62 g ai/ha; for plant injury at 125 g/ha: 125 g ai/ha; for plant injury at 250 g/ha: 250 g ai/ha
Procedure, shortened: as §1

[6] = system: oat, wild (wild oat, Avena fatua)
Procedure, shortened: as §1

[7] = system: pigweed (Amaranthus retroflexus); conditions: Amaranthus retroflexus, Pigweed, read-out: Plant response rating; for pest or weed control at 31 g/ha: 31 g ai/ha; for pest or weed control at 62 g/ha: 62 g ai/ha; for pest or weed control at 125 g/ha: 125 g ai/ha; for pest or weed control at 250 g/ha: 250 g ai/ha
Procedure, shortened: as §1

[8] = system: ryegrass, Italian (Italian ryegrass, Lolium multiflorum); conditions: Lolium multiflorum, Ryegrass, Italian, read-out: Plant response rating; for pest or weed control at 31 g/ha: 31 g ai/ha; for pest or weed control at 62 g/ha: 62 g ai/ha; for pest or weed control at 125 g/ha: 125 g ai/ha; for pest or weed control at 250 g/ha: 250 g ai/ha
Procedure, shortened: as §1

[9] = system: kochia (Kochia scoparia)
Procedure, shortened: as §1

[10] = system: wheat (winter wheat, Triticum aestivum); conditions: Triticum aestivum, Wheat, read-out: Plant response rating; for plant injury at 62 g/ha: 62 g ai/ha; for plant injury at 125 g/ha: 125 g ai/ha; for plant injury at 250 g/ha: 250 g ai/ha
Procedure, shortened: as §1

[11] = system: morningglory (Ipomoea coccinea); conditions: Morningglory
Procedure, shortened: as §1

[12] = system: corn (Zea mays); conditions: Zea mays, Corn, read-out: Plant response rating; for plant injury at 31 g/ha: 31 g ai/ha; for plant injury at 62 g/ha: 62 g ai/ha; for plant injury at 125 g/ha: 125 g ai/ha; for plant injury at 250 g/ha: 250 g ai/ha
Procedure, shortened: as §1

[13] = post-emergence, Postemergence, 31 g ai/ha

Cc1cc(=O)n(-c2ccc(F)cc2)nc1Oc1ccnc(C(F)(F)F)c1 [Compound 14, 2-(4-fluorophenyl)-5-methyl-6-[[2-(trifluoromethyl)-4-pyridinyl]oxy]-3 (2H)-pyridazinone]
Plant response rating ([1]; Postemergence, 31 g ai/ha): 40 | Plant response rating ([1]; Postemergence, 62 g ai/ha): 40 | Plant response rating ([1]; Postemergence, 125 g ai/ha): 45 | Plant response rating ([1]; Postemergence, 250 g ai/ha): 45 | Plant response rating ([1]; Preemergence, 31 g ai/ha): 55 | Plant response rating ([1]; Preemergence, 62 g ai/ha): 95 | Plant response rating ([1]; Preemergence, 125 g ai/ha): 95 | Plant response rating ([1]; Preemergence, 250 g ai/ha): 98 | pest or weed control at 31 g/ha ([2]; post-emergence, Postemergence): 50% | pest or weed control at 62 g/ha ([2]; post-emergence, Postemergence): 50% | pest or weed control at 125 g/ha ([2]; post-emergence, Postemergence): 60% | pest or weed control at 250 g/ha ([2]; post-emergence, Postemergence): 70% | pest or weed control at 31 g/ha ([2]; pre-emergence, Preemergence): 5% | pest or weed control at 62 g/ha ([2]; pre-emergence, Preemergence): 15% | pest or weed control at 125 g/ha ([2]; pre-emergence, Preemergence): 30% | pest or weed control at 250 g/ha ([2]; pre-emergence, Preemergence): 55% | pest or weed control at 31 g/ha ([3]; post-emergence, Postemergence): 10% | pest or weed control at 62 g/ha ([3]; post-emergence, Postemergence): 10% | pest or weed control at 125 g/ha ([3]; post-emergence, Postemergence): 15% | pest or weed control at 250 g/ha ([3]; post-emergence, Postemergence): 30% | pest or weed control at 31 g/ha ([3]; pre-emergence, Preemergence): 80% | pest or weed control at 62 g/ha ([3]; pre-emergence, Preemergence): 100% | pest or weed control at 125 g/ha ([3]; pre-emergence, Preemergence): 100% | pest or weed control at 250 g/ha ([3]; pre-emergence, Preemergence): 100% | pest or weed control at 31 g/ha [4, 13]: 5% | pest or weed control at 62 g/ha ([4]; post-emergence, Postemergence): 5% | pest or weed control at 125 g/ha ([4]; post-emergence, Postemergence): 5% | pest or weed control at 250 g/ha ([4]; post-emergence, Postemergence): 45% | pest or weed control at 62 g/ha ([4]; pre-emergence, Preemergence): 10% | pest or weed control at 125 g/ha ([4]; pre-emergence, Preemergence): 15% | pest or weed control at 250 g/ha ([4]; pre-emergence, Preemergence): 15% | plant injury at 31 g/ha [5, 13]: 90% | plant injury at 62 g/ha ([5]; post-emergence, Postemergence): 90% | plant injury at 125 g/ha ([5]; post-emergence, Postemergence): 95% | plant injury at 250 g/ha ([5]; post-emergence, Postemergence): 95% | plant injury at 62 g/ha ([5]; pre-emergence, Preemergence): 40% | plant injury at 125 g/ha ([5]; pre-emergence, Preemergence): 55% | plant injury at 250 g/ha ([5]; pre-emergence, Preemergence): 75% | Plant response rating ([6]; Postemergence, 31 g ai/ha): 20 | Plant response rating ([6]; Postemergence, 62 g ai/ha): 30 | Plant response rating ([6]; Postemergence, 125 g ai/ha): 30 | Plant response rating ([6]; Postemergence, 250 g ai/ha): 30 | Plant response rating ([6]; Preemergence, 31 g ai/ha): 0 | Plant response rating ([6]; Preemergence, 62 g ai/ha): 0 | Plant response rating ([6]; Preemergence, 125 g ai/ha): 65 | Plant response rating ([6]; Preemergence, 250 g ai/ha): 65 | pest or weed control at 31 g/ha ([7]; post-emergence, Postemergence): 60% | pest or weed control at 62 g/ha ([7]; post-emergence, Postemergence): 65% | pest or weed control at 125 g/ha ([7]; post-emergence, Postemergence): 80% | pest or weed control at 250 g/ha ([7]; post-emergence, Postemergence): 85% | pest or weed control at 31 g/ha ([7]; pre-emergence, Preemergence): 100% | pest or weed control at 62 g/ha ([7]; pre-emergence, Preemergence): 100% | pest or weed control at 125 g/ha ([7]; pre-emergence, Preemergence): 100% | pest or weed control at 250 g/ha ([7]; pre-emergence, Preemergence): 100% | pest or weed control at 31 g/ha ([8]; post-emergence, Postemergence): 5% | pest or weed control at 62 g/ha ([8]; post-emergence, Postemergence): 5% | pest or weed control at 125 g/ha ([8]; post-emergence, Postemergence): 10% | pest or weed control at 250 g/ha ([8]; post-emergence, Postemergence): 25% | pest or weed control at 31 g/ha ([8]; pre-emergence, Preemergence): 0% | pest or weed control at 62 g/ha ([8]; pre-emergence, Preemergence): 5% | pest or weed control at 125 g/ha ([8]; pre-emergence, Preemergence): 30% | pest or weed control at 250 g/ha ([8]; pre-emergence, Preemergence): 50% | Plant response rating ([9]; Postemergence, 31 g ai/ha): 25 | Plant response rating ([9]; Postemergence, 62 g ai/ha): 35 | Plant response rating ([9]; Postemergence, 125 g ai/ha): 55 | Plant response rating ([9]; Postemergence, 250 g ai/ha): 80 | Plant response rating ([9]; Preemergence, 31 g ai/ha): 45 | Plant response rating ([9]; Preemergence, 62 g ai/ha): 75 | Plant response rating ([9]; Preemergence, 125 g ai/ha): 90 | Plant response rating ([9]; Preemergence, 250 g ai/ha): 90 | plant injury at 31 g/ha [10, 13]: 5% | plant injury at 62 g/ha ([10]; post-emergence, Postemergence): 5% | plant injury at 125 g/ha ([10]; post-emergence, Postemergence): 5% | plant injury at 250 g/ha ([10]; post-emergence, Postemergence): 5% | plant injury at 62 g/ha ([10]; pre-emergence, Preemergence): 0% | plant injury at 125 g/ha ([10]; pre-emergence, Preemergence): 15% | plant injury at 250 g/ha ([10]; pre-emergence, Preemergence): 25% | Plant response rating ([11]; Postemergence, 31 g ai/ha): 75 | Plant response rating ([11]; Postemergence, 62 g ai/ha): 75 | Plant response rating ([11]; Postemergence, 125 g ai/ha): 80 | Plant response rating ([11]; Postemergence, 250 g ai/ha): 98 | Plant response rating ([11]; Preemergence, 31 g ai/ha): 35 | Plant response rating ([11]; Preemergence, 62 g ai/ha): 60 | Plant response rating ([11]; Preemergence, 125 g ai/ha): 65 | Plant response rating ([11]; Preemergence, 250 g ai/ha): 75 | plant injury at 31 g/ha ([12]; post-emergence, Postemergence): 20% | plant injury at 62 g/ha ([12]; post-emergence, Postemergence): 35% | plant injury at 125 g/ha ([12]; post-emergence, Postemergence): 40% | plant injury at 250 g/ha ([12]; post-emergence, Postemergence): 40% | plant injury at 31 g/ha ([12]; pre-emergence, Preemergence): 0% | plant injury at 62 g/ha ([12]; pre-emergence, Preemergence): 35% | plant injury at 125 g/ha ([12]; pre-emergence, Preemergence): 50% | plant injury at 250 g/ha ([12]; pre-emergence, Preemergence): 75%
